Entries after “also recorded” stand apart in the source; their conditions may differ. Where a SMILES comes first, the peptide text is derived from it. Where no end group is shown, it is not given here. [ ]: non-standard residue; d: D form. Lys(Me3) = C[N+](C)(C)CCCC[C@H](N)C(=O)O; Lys(Me2) = CN(C)CCCC[C@H](N)C(=O)O; Lys(Me) = CNCCCC[C@H](N)C(=O)O
Columns and labels:
KDM4A = experiment: Demethylase activity of wild type KDM4A on peptide substrates (MALDI-TOF MS); type: biochemical, human; conditions: 10 µM enzyme, 10 µM peptide, 1 mM 2OG, 50 mM Tris pH 8, 37°C, three hours
Procedure: fritted syringe was rocked for 2-4 hours at room temperature using a fixed angle rocker (Fisher 07202202). After cleavage, the solvent was ejected from the syringe into a 50mL Falcon tube, leaving behind the resin in the syringe. Nitrogen gas was bubbled through the solution to remove roughly 50% of the TFA prior to precipitation via -80°C diethyl ether for 5-10 minutes (Acros #326860010). Precipitate was then pelleted via centrifugation (Sorvall Legend XTR) at 3000 rpm for 5 mins. Supernatant was decanted. Crude peptide was then resuspended in 0.1% TFA prior to purification and characterization as described for peptides from the peptide facility. The integrity of the purified peptides was confirmed by MALDI-TOF MS. The complete list is in Table S1.
3. Expression and purification of wild type KDM4A-E […]
bacterial expression construct pNIC28-Bsa4 (Addgene ID: 38846) was obtained from Addgene […]
E. Coli BL21 (DE3) competent cells (Invitrogen) using pNIC28-Bsa4 kanamycin-resistant vector.
A single colony was picked up and grown overnight at 37 °C in 10 mL of Luria-Bertani (LB) broth in the presence of 50 μg/mL kanamycin and 35 μg/mL chloramphenicol. The culture was diluted 100-fold and allowed to grow at 37 °C to an optical density (OD600) of 0.8, and protein expression was induced overnight at 17 °C with 0.6 mM IPTG in an Innova 44® Incubator shaker (New Brunswick Scientific). Proteins were purified as follows: harvested cells were resuspended in 15 mL lysis buffer (50 mM Tris-HCl pH 8.0, 200 mM NaCl, 5 mM b-mercaptoethanol, 10% glycerol, 25 mM imidazole, Lysozyme, DNase, and Roche protease inhibitor cocktail). […]
After passing 20 volumes of washing buffer (50 mM Tris-HCl pH 8.0, 200 mM NaCl, 5 mM b-mercaptoethanol, 10% glycerol, and 25 mM imidazole), proteins were eluted with a buffer containing 50 mM Tris-HCl pH 8.0, 200 mM NaCl, 5 mM b-mercaptoethanol, 10% glycerol, and 400 mM imidazole. […] The protein concentration was determined […]
8.0, 200 mM NaCl, and 10% glycerol. […] The protein concentration was determined using Bradford assay kit (BioRad Laboratories) with BSA as a standard. […]

KDM4A-E = experiment: Demethylase activity of KDM4 subfamily on peptide substrates (MALDI-TOF MS), result worded for KDM4A-E together; type: biochemical, human; conditions: wild-type KDM4A-E, 10 µM enzyme, 10 µM peptide, 1 mM 2OG, 50 mM Tris pH 8, 37°C, three hours
CBX1 chromodomain [1] = molecular target: T1, CBX1 chromodomain (Homo sapiens, UniProt P83916); experiment: Isothermal titration calorimetry of peptide binding to CBX1 chromodomain; conditions: ITC, 25 °C, 1.1 mM peptide into 110 µM CBX1 chromodomain; for Kd: 200mM NaCl, 10% glycerol, 50mM Tris pH 8.0, single binding site model
T1 construct: occupied by CBX1 chromodomain at a concentration of 110 µM; 6xHis (N); made in house
T1 sequence (P83916 21-79 limits assumed): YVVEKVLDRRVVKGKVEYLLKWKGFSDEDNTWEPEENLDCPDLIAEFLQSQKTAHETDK
Procedure: (§1) 7. Expression and purification of lysine methyltransferases and Chromodomains […]
17. Isothermal Titration Calorimetry
Isothermal titration calorimetry (ITC) was performed with an ITC200 instrument (MicroCal, Malvern). Experiments were conducted at 25 °C while stirring at 750 rpm. Buffers of protein […]
were matched to 200mM NaCl, 10% glycerol, and 50mM Tris pH 8.0. Each titration was performed as follows: one initial injection of 0.4 µL for 0.8 seconds, followed by 19 injections of 2.0 µL for 4 seconds, with ≥2 mins between each injection. The initial injection was discarded prior to data analysis. The microsyringe (40µL) was loaded with 1.1 mM peptide and injected into the cell (200µL), occupied by CBX1 chromodomain at a concentration of 110 µM. Data was fitted to a single binding site model using Microcal ITC200 Software with Origin Lab 7.
(§2) KDM4A mammalian expression plasmid in CMV vector was purchased from Addgene (plasmid #24180). Full-length G9a in pCDNA3 vector was kind from Prof. Minkui Luo at the Memorial Sloan-Kettering Cancer Center. HEK293T/17 cells (ATCC) were grown in a T25 containing Delbucco’s Modified Eagle Medium (DMEM) (Corning) with 10% FBS at 37 °C, 5% CO2, and 95% relative humidity. When cells reached 80% confluency, 5 µg of plasmid and 10 µg

CBX1 chromodomain [2] = molecular target: T1, CBX1 chromodomain; experiment: as above; conditions: ITC, T 288.15 K in Table S6
G9a = experiment: Methylation of eIF4A3-K374 peptides by KMT (MALDI-TOF MS); type: biochemical; conditions: 20 µM KMT, 10 µM peptide, 200 µM SAM
Procedure: as §1
16. Methylation activity of wild type KMTs on eIF4A3-K374me0/1/2 peptides 20 µM lysine methyltransferase, 10 µM eIF4A3-me0/1/2 peptide and 200 µM SAM were incubated at room temperature for 1-2 hours in 50 mM Tris pH 8.0. Reaction was stopped by storing the microcentrifuge tubes on ice. After mixing, 0.8 µL of sample and 0.8 µL of α-cyano-4-hydroxycinnamic acid (CHCA) (dissolved in 50:50 0.1% TFA and acetonitrile) were combined on a MALDI plate. Samples were ionized using reflectron positive mode on Bruker Daltonics UltrafleXtreme MALDI TOF with detection carried out from 700-3500 m/z. Bruker Flex Analysis software was used to analyze the MALDI-TOF MS spectra.
17. Isothermal Titration Calorimetry […]
The microsyringe (40µL) was loaded with 1.1 mM peptide and injected into the cell (200µL), occupied by CBX1 chromodomain at a concentration of 110 µM. Data was fitted to a single binding site model using Microcal ITC200 Software with Origin Lab 7.
as §2

KDM4C-I73AzF = experiment: Photo-crosslinking with TAMRA peptides, in-gel fluorescence; type: binding, human; conditions: 10 µM peptide, 20 µM protein, UV irradiation
Procedure: (§3) 10. Photo-crosslinking experiment with peptides and in-gel fluorescence For peptide photo-crosslinking experiments, 10 µM TAMRA-labeled H3K9me0 or H3K9me3 […]
(§4) mM ascorbic acid, 50 mM tris pH 8.0, 50 μM Fe(NH4)2(SO4)2, 200 µM 2OG. Samples were […]
(§5) 365nm 100% irradiated) for 30 minutes at 4 °C on ice. Negative controls were kept in dark on ice for the full 30 minutes. 10 µL of sample was mixed with 5 µL 4X Laemmli dye (Biorad #1610747) and separated on a 4-12 % Criterion XT precast gel (Bio-Rad Laboratories). Gels were imaged on a ChemiDoc MP Imaging system using TAMRA fluorophore excitation wavelength (Emission filter 605/50, Light: green Epi illumination). The gel was subsequently stained with Coomassie brilliant blue R-250 staining solution to confirm the presence of proteins in all the samples. […]

KDM4D-L75AzF = experiment: as above; type: binding, human; conditions: 10 µM peptide, 20 µM protein, UV irradiation
Procedure: as §3, §4, §5

[3] = test system: catalytically dead AzF variants of KDM4A; experiment: as above; type: binding, human; conditions: majority of the catalytically dead AzF variants, 10 µM peptide, 20 µM protein, 365 nm UV, 30 minutes
Procedure: as §3, §4, §5

wild-type KDM4A = experiment: as above; type: binding, human; conditions: 10 µM peptide, 20 µM protein, 365 nm UV, 30 minutes at 4 °C
Procedure: as §3, §4, §5

KDM4A-I71AzF [4] = experiment: as above; type: binding, human
KDM4E-L72AzF = experiment: as above; type: binding; conditions: 10 µM peptide, 20 µM protein, UV irradiation
Procedure: as §3, §4, §5

KDM4A-I71AzF [5] = experiment: Demethylase activity of AzF mutant on peptide substrates (MALDI-TOF MS); type: biochemical, human; conditions: 10 µM enzyme, 10 µM peptide, 1 mM 2OG, 50 mM Tris pH 8, 37°C, three hours

Compound: CC[C@H](C)[C@H](NC(=O)[C@H](C)NC(=O)[C@@H](NC(=O)CNC(=O)[C@H](CCCC[N+](C)(C)C)NC(=O)[C@H](CCCNC(=N)N)NC(=O)CNC(=O)[C@H](Cc1ccc(O)cc1)NC(=O)[C@H](CCCNC(=N)N)NC(=O)CNC(=O)[C@H](CO)NC(=O)[C@H](CCCNC(=N)N)NC(=O)CN)C(C)C)C(=O)N[C@@H](CC(N)=O)C(=O)N[C@@H](Cc1ccccc1)C(=O)N[C@H](C(=O)N[C@@H](CCCCN)C(N)=O)C(C)C [compound 13] (H-GRSGRYGR[Lys(Me3)]GVAINFVK-NH2)
- demethylation by KDM4A (KDM4A): indeed demethylated by KDM4A in vitro
- demethylation by KDM4A-E (KDM4A-E): demethylated by multiple KDM4s; also recorded: robust demethylation
- Kd (CBX1 chromodomain [1]): 23.2 ± 2 µM
- TΔS (CBX1 chromodomain [2]): 2.472 kcal/mol
- ΔG (CBX1 chromodomain [2]): -6.230 kcal/mol
- ΔH (CBX1 chromodomain [2]): -3.758 kcal/mol
- ΔS (CBX1 chromodomain [2]): 8.58 cal/mol/degree

Compound: CC[C@H](C)[C@H](NC(=O)[C@H](C)NC(=O)[C@@H](NC(=O)CNC(=O)[C@H](CCCCN(C)C)NC(=O)[C@H](CCCNC(=N)N)NC(=O)CNC(=O)[C@H](Cc1ccc(O)cc1)NC(=O)[C@H](CCCNC(=N)N)NC(=O)CNC(=O)[C@H](CO)NC(=O)[C@H](CCCNC(=N)N)NC(=O)CN)C(C)C)C(=O)N[C@@H](CC(N)=O)C(=O)N[C@@H](Cc1ccccc1)C(=O)N[C@H](C(=O)N[C@@H](CCCCN)C(N)=O)C(C)C [compound 23] (H-GRSGRYGR[Lys(Me2)]GVAINFVK-NH2)
- demethylation by KDM4A (KDM4A): demethylated only to eIF4A3-K374me1 by KDM4A; also recorded: demethylated to Kme1 by KDM4A
- methylation by G9a (in words) (G9a): methylated by G9a; also recorded: trimethylated by G9a
- Kd (CBX1 chromodomain [1]): 95.2 ± 1.4 µM
- TΔS (CBX1 chromodomain [2]): -1.106 kcal/mol
- ΔG (CBX1 chromodomain [2]): -5.470 kcal/mol
- ΔH (CBX1 chromodomain [2]): -6.576 kcal/mol
- ΔS (CBX1 chromodomain [2]): -3.84 cal/mol/degree

Compound: (5/6)-TA M R A-GGARTKQTARKme3STGGKAPR [compound 6, tetramethylrhodamine (TAMRA)-attached H3K9me3 peptide]
- crosslinking with KDM4C-I73AzF (KDM4C-I73AzF): successful crosslinking
- crosslinking with KDM4D-L75AzF (KDM4D-L75AzF): successful crosslinking
- crosslinking with catalytically dead AzF variants [3]: ineffective to trap the substrate
- crosslinking with wild-type KDM4A (wild-type KDM4A): failed to undergo crosslinking
- crosslinking with KDM4A-I71AzF (KDM4A-I71AzF [4]; 10 µM peptide, 20 µM protein, 365 nm UV, 30 minutes at 4 °C): robust crosslinking
- crosslinking without UV exposure (control) (KDM4A-I71AzF [4]; kept in dark on ice 30 minutes): no fluorescence band was detected
- crosslinking with KDM4E-L72AzF (KDM4E-L72AzF): successful crosslinking

Compound: GRSGRYGR[Lys(Me)]GVAINFVK [compound 22, eIF4A3-K374me1 peptide]
- demethylation by KDM4A (KDM4A): not demethylated by KDM4A; also recorded: failed to convert to Kme0
- methylation by G9a (in words) (G9a): methylated by G9a; also recorded: trimethylated by G9a
- binding to CBX1 chromodomain (in words) (CBX1 chromodomain [1]; 50mM Tris pH 8.0): no binding; also recorded: not bind to CBX1; also recorded: no detectable interaction
- TΔS (CBX1 chromodomain [2]): 0 kcal/mol
- ΔG (CBX1 chromodomain [2]): 0 kcal/mol
- ΔH (CBX1 chromodomain [2]): 0 kcal/mol
- ΔS (CBX1 chromodomain [2]): 0 cal/mol/degree

Compound: KSAPSTGGVKme3KPHRYKPGTGK [compound 5, H3K36me3 peptide]
- demethylation by I71AzF mutant (KDM4A-I71AzF [5]): modestly
